{
  "source": "patent US20220387434A1",
  "about": "“COMBINATION OF A BTK INHIBITOR AND AN MDM2 INHIBITOR FOR CANCER TREATMENT” (QUOGUE IP HOLDINGS LLC, priority 2019, published 2022)",
  "origin": "cited, not measured here",
  "system": "lymphocytes",
  "settings": "Ibr versus Veh (FIG. 3)",
  "data": [
    {"smiles": "C=CC(=O)N1CCC[C@@H](n2nc(-c3ccc(Oc4ccccc4)cc3)c3c(N)ncnc32)C1", "note": "[Ibrutinib, 1-[(3R)-3-[4-amino-3-(4-phenoxyphenyl)pyrazolo[3,4-d]pyrimidin-1-yl]piperidin-1-yl]prop-2-en-1-one]", "values": [
      {"measurement": "mobilization of lymphocytes into the peripheral circulation", "result": "mobilization"}
    ]}
  ]
}
